Data from patent US20160331853A1, “COMPOSITIONS FOR RADIOTHERAPY AND USES THEREOF” (The Trustees of Columbia University in the City of New York, priority 2014, published 2016).
Several values for one entry are separate records, joined by “and”; a condition that tells them apart may be missing. Identical values can stand only once.

Key:
[1] = Example 2: Avidin and Avidin-Rhodamine binding to talc after PBS and 0.2% EDTA washes, fluorescent microscope; settings: 100 mg talc; 3x PBS, 3x 0.2% EDTA washes
Protocol: The resulting mixtures were then washed with PBS and then washed with 0.2% EDTA.
3. Mix 1 mL of 100 μM of Avidin with 500 μL of 30.3 μM of Avidin Rhodamine (keep lights off).
4. […] Mix well to bring the dry talc powder to evenly distributed reaction solution.
8. Place tubes on the rotator and incubate overnight at 4° C.
5. Continue to wash all “b” labeled tubes with 0.2% EDTA. Wash 3× in 0.5 mL EDTA.
7. View slides under fluorescent microscope.

[2] = Example 3: binding Avidin to 100 mg sterile talc, Pierce 660 nm total protein assay of supernatants and washes
Protocol: Collect the supernatant liquid from two tubes containing the two highest concentrations of Avidin at varying points.
4. Run total protein assay using Pierce microplate kit and read plate in plate reader.
6. Wash all tubes in PBS two times, collecting the supernatant liquid from each wash ONLY from the two highest concentrations of Avidin (tubes labeled 1-2b, 1-2c, and 2-2b, 2-2c).
7. Continue to wash 3× with 0.5 mL of 0.2% EDTA.
8. Collect the supernatant from each wash and transfer to the new tubes only from the original tubes with the highest concentration of Avidin (50 μM and 5 μM). Collect only the FIRST wash with EDTA solution for the other tubes.
10. Run the total protein assay (see e.g., Example 1) using all the collected supernatant liquid.
The shape is similar to a nugget, and the calculations will substitute it's geometry with spheres. […] Less than 5% is below that range, and above that range.

[3] = Example 4: amount of Avidin saturating 100 mg talc, Pierce total protein assay of supernatant; type: binding
Excerpt: 2. Collect the supernatant from each tube but discard the pellet.
3. Run the Pierce total protein assay using the following dilutions of the collected supernatant.
4. Read plate in the plate reader (absorbance assay) at 660 nm wavelength.

[4] = Example 12: hot and cold Avidin mix binding to talc, repeat with controls, OD 450 nm
Protocol: The following Example repeated the hot/cold experiment shown in Example 10, with the addition of multiple controls.
1. Prepare 10 mL of 40 ng/mL (or […]) HRP Avidin in 1×PBS using 5.75 mg/mL or 32.5 μM of HRP Avidin stock solution.
6. Weigh 8 mg of Avidin (cold Avidin), then resuspend it in 2 mL of PBS that contains 40 ng/mL of “hot” Avidin. So the solution will now be 40 ng/mL hot Avidin+4 mg/mL of Cold Avidin. Label this tube as #1.
7. Make 3 mL of 1:10 dilution of solution in Tube #1 and make labeled Tube #2 containing 2.7 mL of 40 ng/mL in Hot Avidin solution in PBS+300 μL of Tube #1. The solution in the tube will contain 40 ng/mL of Hot Avidin+400 μg of Cold Avidin.
8. Make 1:2 dilution of solution in Tube #2 using as a diluted solvent of […] of Hot Avidin in PBS. Added 1 mL of Hot Avidin+1 mL of Tube #2. The final concentration will be 40 ng/mL of Hot Avidin+200 μg/mL of Cold Avidin. Label this tube as Tube #3.
9. Make 1:2 dilution of solution in Tube #3, using as a solvent of 40 ng/mL Hot Avidin in PBS Prepare 2 mL of solution: 1 mL of 40 ng/mL of Hot Avidin in PBS+1 mL of Tube #3 The final concentration will be 40 ng/mL of hot Avidin+100 μg/mL of Cold Avidin. Label this tube as Tube #4.
3. Wash the plate 3× with 300 μL PBS containing 10% FBS.
7. Add 100 μL of Stop Solution 2.
8. Read absorbance at 450 nm using the plate reader.

[5] = Example 14: talc bound to HRP- and cold Avidin, 48 hours incubation in PBS containing 10% FBS, OD 450 nm; type: physicochemical; settings: 48 hours in PBS containing 10% FBS
Protocol: Purpose: To check how strong the conjugate of hot/cold Avidin to Talc is. […] Absorbance will be checked twice—once before washing with PBS containing 10% FBS and after 48 hours, washing will be done.
1. Prepare 10 mL of 40 ng/mL (or 260 μM) HRP Avidin in 1×PBS using 5.75 mg/mL or 32.5 uM of HRP Avidin stock solution.
6. Weigh 8 mg of Avidin (cold Avidin), then resuspend it in 2 mL of PBS containing 40 ng/mL of “hot” Avidin. So the solution will now be 40 ng/mL hot Avidin+4 mg/mL of Cold Avidin. Label this tube as #1.
14. […] Two identical microplates need to be set up, labeling them as: plate#I and plate#2. Design of the plate:
3. Wash both plates 3× with 300 μL PBS.
5. […] Mix constantly, cover plate with Aluminum foil.
6. Add 100 μL of TMB to samples in plate #1.
8. After incubation with TMB is over, add 100 μL of Stop Solution 2.
9. Read absorbance at 450 nm using the plate reader.
3. Collect 100 μL supernatant from samples except native controls and load on same plate.
4. Wash plate except supernatant samples 3× with 300 μL PBS.
6. Add 100 μL of TMB to all samples in plate#2.
8. After incubation with TMB is over add 100 μL of Stop Solution 2.

[6] = Coupling of avidin to talc, binding capacity (general description)

Substance: Avidin: Avidin from egg white (Sigma, Cat. A9275), unlabeled (cold) Avidin
- binding to talc after washing [1]: remained bound to talc despite multiple washes
- AVIDIN in supernatant after incubation ([2]; 198.4 μg Avidin + 100 mg talc): 13.7 μg/0.5 ml
- Avidin binded to talc ([2]; 198.4 μg Avidin + 100 mg talc): 184.7 µg
- Saturation of AVIDIN to the combine surface of 100 mg talc ([2]; 198.4 μg Avidin added): 2.48 μg/cm^2
- AVIDIN in supernatant after incubation ([2]; 198.4 μg Avidin in 0.5 ml + 100 mg talc): 27.4 µg/mL
- Amount of Avidin removed by wash ([2]; 198.4 μg, 1st wash with EDTA): 15.8 µg/mL
- Amount of Avidin removed by wash ([2]; 198.4 μg, 1st wash with PBS): 31.4 µg/mL
- Amount of Avidin removed by wash ([2]; 198.4 μg, 2nd wash with EDTA): 19.8 µg/mL
- Amount of Avidin removed by wash ([2]; 198.4 μg, 2nd wash with PBS): 27.6 µg/mL
- Amount of Avidin removed by wash ([2]; 198.4 μg, 3rd wash with EDTA): 13 µg/mL
- Amount of Avidin removed by wash ([2]; 198.4 μg, 3rd wash with PBS): 32.7 µg/mL
- AVIDIN in supernatant after incubation ([2]; 1650.3 μg Avidin + 100 mg talc): 1185 μg/0.5 ml
- Avidin binded to talc ([2]; 1650.3 μg Avidin + 100 mg talc): 465.3 µg
- Saturation of AVIDIN to the combine surface of 100 mg talc ([2]; 1650.3 μg Avidin added): 6.25 μg/cm^2
- AVIDIN in supernatant after incubation ([2]; 1650.3 μg Avidin in 0.5 ml + 100 mg talc): 2370 µg/mL
- Amount of Avidin removed by wash ([2]; 1650.3 μg, 1st wash with EDTA): 13.2 µg/mL
- Amount of Avidin removed by wash ([2]; 1650.3 μg, 1st wash with PBS): 307.4 µg/mL
- Amount of Avidin removed by wash ([2]; 1650.3 μg, 2nd wash with EDTA): 12.3 µg/mL
- Amount of Avidin removed by wash ([2]; 1650.3 μg, 2nd wash with PBS): 67.3 µg/mL
- Amount of Avidin removed by wash ([2]; 1650.3 μg, 3rd wash with EDTA): 13.2 µg/mL
- Amount of Avidin removed by wash ([2]; 1650.3 μg, 3rd wash with PBS): 40.3 µg/mL
- release of Avidin from talc surface during washes ([2]; 3x PBS, 3x 0.2% EDTA): Only first wash removed quantifiable amounts of Avidin from talc surface
- saturation of talc particles ([2]; highest concentration of Avidin (50 μM), 100 mg talc): not fully saturated
- Avidin binded with talc ([3]; 330 μg/ml Avidin added): 110.4 µg/mL
- Avidin in supernatant ([3]; 330 μg/ml Avidin added): 219.6 μg, ml
- Avidin per talc surface ([3]; 330 μg/ml Avidin added): 1.5 μg/cm2
- Avidin binded with talc ([3]; 3300 μg/ml Avidin added): 2452.7 µg/mL
- Avidin in supernatant ([3]; 3300 μg/ml Avidin added): 847.3 μg, ml
- Avidin per talc surface ([3]; 3300 μg/ml Avidin added): 33.0 μg/cm2 and 33 μg/cm2
- Avidin binded with talc ([3]; 6600 μg/ml Avidin added): 4631.5 µg/mL
- Avidin in supernatant ([3]; 6600 μg/ml Avidin added): 1968.5 μg, ml
- Avidin per talc surface ([3]; 6600 μg/ml Avidin added): 62.3 μg/cm2
- Avidin binded with talc ([3]; 13200 μg/ml Avidin added): 7952.7 µg/mL
- Avidin in supernatant ([3]; 13200 μg/ml Avidin added): 5247.3 μg, ml
- Avidin per talc surface ([3]; 13200 μg/ml Avidin added): 106.9 μg/cm2
- Avidin binded with talc ([3]; 19800 μg/ml Avidin added): 12166.7 µg/mL
- Avidin in supernatant ([3]; 19800 μg/ml Avidin added): 7633.3 μg, ml
- Avidin per talc surface ([3]; 19800 μg/ml Avidin added): 163.5 μg/cm2
- saturation of talc particles ([3]; increasing concentrations of Avidin): not fully saturated
- Efficiency of binding, OD ([4]; 1 mg talc, Cold Avidin only 100 ug/mL): 0.31 OD
- Efficiency of binding, OD ([4]; 1 mg talc, Cold Avidin only 200 ug/mL): 0.27 OD
- Efficiency of binding, OD ([4]; 1 mg talc, Cold Avidin only 400 ug/mL): 0.3 OD
- Efficiency of binding, OD ([4]; 1 mg talc, Cold Avidin only 4 mg/mL): 0.33 OD
- Efficiency of binding, OD ([4]; 5 mg talc, Cold Avidin only 100 ug/mL): 1.38 OD
- Efficiency of binding, OD ([4]; 5 mg talc, Cold Avidin only 200 ug/mL): 1.4 OD
- Efficiency of binding, OD ([4]; 5 mg talc, Cold Avidin only 400 ug/mL): 1.01 OD
- Efficiency of binding, OD ([4]; 5 mg talc, Cold Avidin only 4 mg/mL): 1.23 OD
- stability of binding of Avidin to talc [5]: unchanged at 48 hours
- avidin bound by talc [6]: > 2 nanograms of avidin per mg of talc
